Results on 18 molecules are retold here after ChEMBL document CHEMBL1201862, “PubChem BioAssay data set” (2004).

The structures appear in SMILES notation. Activity calls are given as the source filed them.

Experiment [1] deals with T1, Rac GTPase-activating protein 1 (Homo sapiens, UniProt Q9H0H5).
T1 sequence (Q9H0H5 whole entry): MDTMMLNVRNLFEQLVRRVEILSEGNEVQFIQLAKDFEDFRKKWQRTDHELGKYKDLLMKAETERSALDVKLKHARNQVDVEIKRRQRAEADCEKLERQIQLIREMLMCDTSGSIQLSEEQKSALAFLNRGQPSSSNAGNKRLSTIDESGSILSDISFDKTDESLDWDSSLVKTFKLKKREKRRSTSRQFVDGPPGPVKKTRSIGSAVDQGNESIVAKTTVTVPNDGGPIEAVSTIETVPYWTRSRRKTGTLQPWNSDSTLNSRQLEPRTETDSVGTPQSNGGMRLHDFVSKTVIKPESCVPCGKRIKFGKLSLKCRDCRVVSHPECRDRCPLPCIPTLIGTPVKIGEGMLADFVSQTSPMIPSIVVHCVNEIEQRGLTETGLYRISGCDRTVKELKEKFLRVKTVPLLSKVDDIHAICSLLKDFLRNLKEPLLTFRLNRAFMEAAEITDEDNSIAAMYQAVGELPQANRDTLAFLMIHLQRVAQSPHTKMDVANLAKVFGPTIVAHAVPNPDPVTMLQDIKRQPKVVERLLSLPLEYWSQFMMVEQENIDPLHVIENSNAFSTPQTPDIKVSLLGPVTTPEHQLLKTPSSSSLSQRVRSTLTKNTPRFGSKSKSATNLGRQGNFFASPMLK
The experiment can be described thus: blockers of MgcRacGAP-driven Rac1 GTP hydrolysis – biochemical, ADP Hunter fluorescence, primary and confirmatory, confirmation (AID 624330). It counts as functional.

A short description of experiment [2]: viability loss in HeLa cells – cytotoxicity control for MgcRacGAP inhibitor project, dose response (AID 624300). It counts as functional.
In another experiment the test system is HEK293. Put plainly: EBV LMP1 TES2 canonical NF-kB signalling blockers – cell-based, HEK293, luciferase, cherry-pick, dose response (AID 588343). The conditions noted are these: Homo sapiens. It counts as functional.
In experiment [3] the target is Luciferin 4-monooxygenase (Photinus pyralis, UniProt P08659). The experiment can be described thus: inhibition of purified Photinus pyralis luciferase – biochemical, luminescence, dose response (AID 1891).
Chain of Luciferin 4-monooxygenase (P08659 whole entry): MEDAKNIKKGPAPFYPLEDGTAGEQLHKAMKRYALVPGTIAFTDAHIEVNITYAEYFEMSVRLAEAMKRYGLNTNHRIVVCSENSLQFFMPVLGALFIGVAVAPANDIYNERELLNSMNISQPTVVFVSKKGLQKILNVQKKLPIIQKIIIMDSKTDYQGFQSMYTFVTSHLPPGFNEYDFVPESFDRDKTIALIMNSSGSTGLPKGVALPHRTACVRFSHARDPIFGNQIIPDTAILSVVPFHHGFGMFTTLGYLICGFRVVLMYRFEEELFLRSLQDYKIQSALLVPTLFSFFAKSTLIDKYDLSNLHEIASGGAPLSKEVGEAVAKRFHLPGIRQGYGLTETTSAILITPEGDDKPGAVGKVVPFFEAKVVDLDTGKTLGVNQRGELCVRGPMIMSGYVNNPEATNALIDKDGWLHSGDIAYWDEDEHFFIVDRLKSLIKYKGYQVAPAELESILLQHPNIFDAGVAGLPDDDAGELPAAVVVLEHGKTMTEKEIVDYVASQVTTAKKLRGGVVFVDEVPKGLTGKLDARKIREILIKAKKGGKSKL
The nature of experiment [4]: Luminescence Cell-Based Dose Confirmation HTS to Identify Inhibitors of Platelet Dense Granule Release. [Related pubchem assays: 1663 (Primary HTS), 1678 (Summary of Project)]. The format is functional.
Experiment [5] is described as follows: off-target signal loss in HeLa-CEM21 co-culture – HeLa F-luc CTL cells, cherry-picked, counter-screen for HIV-1 Env fusion inhibitor project, dose response (AID 652040).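 Further: potency for signal decrease marking cytotoxic or nonspecific inhibition.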 The format is functional, cell-based. A general note: Counterscreens check selectivity or assay interference.
Experiment [6] is described as follows: blockers of HIV-1 envelope-mediated cell-cell fusion – cherry-pick, dose response (AID 652057). It counts as functional, cell-based.
Experiment [7] is described as follows: HIV-1 AD8 envelope cell-cell fusion blockers – cherry-pick, dose response (AID 652062).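 Further: luciferase signal from cell-cell fusion driven by HIV-1 clade B AD8 Env; potency is for inhibitors of fusion seen as a drop in luminescence.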 The format is functional, cell-based.
The target in experiment [8] is FAD-linked sulfhydryl oxidase ALR (Homo sapiens, UniProt P55789). The experiment can be described thus: ALR-catalysed DTT oxidation blockers – biochemical, H2O2 detection, luminescence, cherry-pick, dose response (AID 493248).
Chain of FAD-linked sulfhydryl oxidase ALR (P55789 whole entry, the tested form may be a part): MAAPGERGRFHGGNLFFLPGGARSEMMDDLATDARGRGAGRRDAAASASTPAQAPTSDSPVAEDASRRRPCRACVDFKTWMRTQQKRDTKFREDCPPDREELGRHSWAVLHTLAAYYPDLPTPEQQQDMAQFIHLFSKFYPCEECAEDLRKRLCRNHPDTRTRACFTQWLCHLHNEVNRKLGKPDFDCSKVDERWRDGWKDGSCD
Experiment [9] in a line: blockers of HIV-1 ZM109 envelope-driven cell-cell fusion – HeLa effector, CEM target cells, luciferase, cherry-pick, dose response (AID 652058).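 Further: luciferase signal from HIV-1 Env mediated cell-cell fusion of effector and target cells.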 The format is functional, cell-based.
The target in experiment [10] is T2, DNA repair and recombination protein RAD54-like (Homo sapiens, UniProt Q92698).
T2 sequence (Q92698 whole entry): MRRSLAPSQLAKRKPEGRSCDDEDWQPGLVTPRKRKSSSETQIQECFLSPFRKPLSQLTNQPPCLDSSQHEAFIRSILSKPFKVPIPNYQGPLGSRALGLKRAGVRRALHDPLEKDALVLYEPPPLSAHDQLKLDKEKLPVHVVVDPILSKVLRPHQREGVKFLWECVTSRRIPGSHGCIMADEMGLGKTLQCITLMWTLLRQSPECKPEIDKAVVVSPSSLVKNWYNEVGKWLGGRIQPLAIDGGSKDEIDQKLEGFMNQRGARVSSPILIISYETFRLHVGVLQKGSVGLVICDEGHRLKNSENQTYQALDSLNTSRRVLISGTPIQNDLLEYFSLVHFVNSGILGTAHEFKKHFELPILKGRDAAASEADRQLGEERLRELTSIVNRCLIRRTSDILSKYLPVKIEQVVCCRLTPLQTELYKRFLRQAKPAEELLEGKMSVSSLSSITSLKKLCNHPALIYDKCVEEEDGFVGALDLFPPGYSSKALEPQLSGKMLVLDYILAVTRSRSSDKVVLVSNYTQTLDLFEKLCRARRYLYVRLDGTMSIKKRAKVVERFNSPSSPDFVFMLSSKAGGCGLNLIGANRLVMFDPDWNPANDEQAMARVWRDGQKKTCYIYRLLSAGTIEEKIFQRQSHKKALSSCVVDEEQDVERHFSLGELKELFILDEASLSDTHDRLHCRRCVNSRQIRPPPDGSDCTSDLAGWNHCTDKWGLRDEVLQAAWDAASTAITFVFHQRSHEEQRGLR
The experiment can be described thus: RAD54 Holliday junction migration blockers – biochemical, fluorescence, cherry-picked samples, dose series, confirmation (AID 651657). The format is functional.

For the next experiment, the target named is Genome polyprotein (dengue virus type 2, UniProt P29990). The experiment can be described thus: flavivirus cap methylation enzyme inhibition – biochemical, confirmation dose response, primary screen (AID 588689). The format is functional.
Chain of Genome polyprotein (P29990 2492-3391 limits assumed): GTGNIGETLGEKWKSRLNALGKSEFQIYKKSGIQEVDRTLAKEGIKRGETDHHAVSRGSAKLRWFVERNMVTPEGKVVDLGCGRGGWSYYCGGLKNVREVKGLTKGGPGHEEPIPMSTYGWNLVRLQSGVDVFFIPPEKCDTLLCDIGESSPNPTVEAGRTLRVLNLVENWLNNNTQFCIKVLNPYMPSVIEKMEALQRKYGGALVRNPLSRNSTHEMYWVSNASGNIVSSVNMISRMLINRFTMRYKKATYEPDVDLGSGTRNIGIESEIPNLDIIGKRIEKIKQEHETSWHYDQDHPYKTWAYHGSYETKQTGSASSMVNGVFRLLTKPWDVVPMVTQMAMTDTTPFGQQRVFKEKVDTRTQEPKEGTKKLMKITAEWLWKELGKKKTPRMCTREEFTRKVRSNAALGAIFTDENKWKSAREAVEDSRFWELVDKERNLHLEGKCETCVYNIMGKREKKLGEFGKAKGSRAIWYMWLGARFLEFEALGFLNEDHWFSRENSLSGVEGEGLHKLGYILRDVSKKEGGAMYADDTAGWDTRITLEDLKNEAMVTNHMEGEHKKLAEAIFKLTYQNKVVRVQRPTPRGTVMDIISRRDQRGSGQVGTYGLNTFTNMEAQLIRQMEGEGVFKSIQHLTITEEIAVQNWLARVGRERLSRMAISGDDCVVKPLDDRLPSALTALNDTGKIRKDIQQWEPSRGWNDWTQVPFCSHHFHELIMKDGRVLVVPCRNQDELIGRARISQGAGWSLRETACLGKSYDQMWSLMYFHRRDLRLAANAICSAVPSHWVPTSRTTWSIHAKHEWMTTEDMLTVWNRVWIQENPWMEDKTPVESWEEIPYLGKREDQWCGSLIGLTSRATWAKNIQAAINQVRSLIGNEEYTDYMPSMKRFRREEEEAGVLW
Experiment [11] concerns the target Heat shock protein HSP 90-alpha (Homo sapiens, UniProt P07900). It counts as functional, organism-based.
A short description of experiment [12]: blockers of bursicon-stimulated LGR2 cAMP reporter – cell-based, HEK293, CRE-luciferase reporter, cherry pick, set 2, dose response (AID 743343).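 Further: transfected cells were stimulated with diluted bursicon conditioned medium after compound addition.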 The format is functional.
The nature of experiment [13]: viability loss in HEK293 cells – cell-based, plate reader, cherry-picked samples, cytotoxicity control, dose response (AID 743446). The format is functional.
A short description of experiment [14]: A549 cell cytotoxicity, dose response, cytotoxicity control, plate reader, cherry-pick, antagonist series (AID 743412). The format is functional, cell-based.
Experiment [15] can be described thus: blockade of melanocortin 4 receptor signaling – cell-based, plate reader, cherry pick, counter-screen for LGR2 antagonist project, dose response (AID 743444).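 Further: transfected HEK 293 cells stimulated with alpha-MSH peptide; potency of inhibitors of the alpha-MSH evoked signal.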 The format is functional.
A short description of experiment [16]: toxicity toward HepG2 liver cells – cell-based, plate reader, cherry-pick, antagonist series, cytotoxicity control, dose response (AID 743416). The format is functional.
Experiment [17] can be described thus: intracellular Trypanosoma cruzi inhibitors in host cells – cell-based, plate reader, cherry-pick samples, set 3, dose response (AID 651818).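 Further: compounds incubated with infected cells for about four days.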 The format is functional.
The target of experiment [18] is T3, DNA repair protein RAD52 homolog (Homo sapiens, UniProt P43351).
T3 sequence (P43351 whole entry): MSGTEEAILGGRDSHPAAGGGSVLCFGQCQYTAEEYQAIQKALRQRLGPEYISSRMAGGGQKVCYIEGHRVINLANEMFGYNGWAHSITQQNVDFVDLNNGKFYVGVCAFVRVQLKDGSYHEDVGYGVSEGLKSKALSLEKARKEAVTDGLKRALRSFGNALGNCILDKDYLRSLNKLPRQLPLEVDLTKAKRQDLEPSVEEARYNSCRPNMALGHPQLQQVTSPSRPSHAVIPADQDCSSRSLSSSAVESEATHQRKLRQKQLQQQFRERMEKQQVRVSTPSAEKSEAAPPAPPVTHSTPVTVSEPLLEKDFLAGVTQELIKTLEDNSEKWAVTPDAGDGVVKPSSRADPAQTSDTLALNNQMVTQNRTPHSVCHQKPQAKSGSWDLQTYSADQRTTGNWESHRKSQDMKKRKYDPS
The format is functional, biochemical.

The target of experiment [19] is T4, Long-chain-fatty-acid--AMP ligase FadD28 (Mycobacterium tuberculosis, UniProt P9WQ59).
T4 sequence (P9WQ59 whole entry): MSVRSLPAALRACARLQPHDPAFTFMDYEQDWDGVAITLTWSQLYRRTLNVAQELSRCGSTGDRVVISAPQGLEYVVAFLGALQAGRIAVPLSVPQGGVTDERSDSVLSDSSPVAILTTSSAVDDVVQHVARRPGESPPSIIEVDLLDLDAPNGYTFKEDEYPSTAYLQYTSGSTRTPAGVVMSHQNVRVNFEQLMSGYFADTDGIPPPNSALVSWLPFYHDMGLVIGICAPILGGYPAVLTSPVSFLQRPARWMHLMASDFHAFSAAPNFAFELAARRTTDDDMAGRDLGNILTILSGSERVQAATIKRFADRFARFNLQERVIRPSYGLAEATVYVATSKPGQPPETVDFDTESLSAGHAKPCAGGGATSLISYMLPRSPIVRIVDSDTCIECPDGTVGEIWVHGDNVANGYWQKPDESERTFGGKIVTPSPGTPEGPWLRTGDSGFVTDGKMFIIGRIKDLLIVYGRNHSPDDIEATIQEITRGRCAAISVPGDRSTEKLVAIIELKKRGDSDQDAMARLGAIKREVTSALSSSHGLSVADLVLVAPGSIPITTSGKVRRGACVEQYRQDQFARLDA
The experiment can be described thus: Fluorescence polarization aasay to screen for inhibitors that compete for the binding of FadD28 to a bisubstrate Measured in Biochemical System Using Plate Reader - 2147-01_Inhibitor_Dose_CherryPick_Activity. It counts as functional, Mycobacterium tuberculosis H37Rv.

In general, IC50 refers to the point on the concentration scale where inhibition reaches its midpoint. In general, CC50 refers to the concentration at which the toxic effect on the cells reaches its halfway point. Regarding `Cc1ccc(S(=O)(=O)c2cc(Nc3ccccc3)ccc2O)cc1`, the IC50 in experiment [1] was 48.9 µM (active). Further, the CC50 in experiment [2] was 100 µM (active).
The term AC50 denotes the midpoint of the concentration-response curve, whichever way the signal moves. For orientation: EC50 means the concentration at which the effect is half-maximal. As to `COc1ccc(NC(=O)c2ccccn2)cc1`, the AC50 in the experiment with HEK293 was 3.65 µM (active). Further, the EC50 in experiment [3] is 9.53 µM (active); in [4], 10.5 µM (active).
Regarding `O=S(=O)(c1ccccc1Cl)N1CCCC1c1nc(-c2ccc(Cl)cc2)no1` (centres undefined), the AC50 was 60.9 µM (active) in [5], 1.99 µM (active) in [6] and 14.8 µM (active) in [7].
In the case of `COc1ccc(-c2c[nH]nc2N)c(OC)c1`, the AC50 in [8] was 0.411 µM (active); in experiment [5], 20 µM (active); in experiment [6], 3.7 µM (active); in experiment [9], 32.5 µM (active); in experiment [7], 4.98 µM (active).
With `Cc1ccc2oc(=O)c3cc(C(=O)NCCCN4CCN(C)CC4)sc3c2c1`, in [10], the AC50 is 34 µM (active).
On to `O=C(O)CCn1cc(C=C2C(=O)NC(=O)NC2=O)c(-c2ccc(Br)cc2)n1`, for which the IC50 at Genome polyprotein was 7.97 µM (active); in experiment [1], 95.3 µM (active).
Regarding `CCCCCCC(=O)N(O)C1CC(=O)N(c2ccc(F)cc2)C1=O` (centres undefined), the AC50 in [11] is 2.58 µM (active).
For `C=CCN(C(=O)C1CC(=O)N(C2CCCC2)C1)c1nc(-c2ccc(S(C)(=O)=O)cc2)cs1` (centres undefined), the AC50 in experiment [12] was 25.8 µM (active); in experiment [13], 30.1 µM (active); in experiment [14], 36.7 µM (active); in [15], 41.5 µM (active); in experiment [16], > 52 µM (inactive).
`CN(C)c1ccc2c(c1)C(=NO)c1ccccc1-2`: in experiment [1], the IC50 is 33.5 µM (active). Further, the CC50 in experiment [2] is 100 µM (active).
For `C[N+](C)(C)CCC(=O)N1C/C(=C/c2ccccc2)C(=O)/C(=C\c2ccccc2)C1`, in that order: 128 µM (active) and 100 µM (active).
Regarding `C[C@@H]1CN([C@H](C)CO)C(=O)Cc2cc(NC(=O)Nc3ccc(F)cc3)ccc2O[C@H]1CN(C)Cc1ccc(-c2ccccc2)cc1`, the AC50 in experiment [17] is 3.36 µM (active).
In the case of `C[C@H]1CN([C@@H](C)CO)C(=O)Cc2cc(NC(=O)Cc3ccccc3)ccc2O[C@H]1CN(C)Cc1ccc(C(F)(F)F)cc1`, the AC50 in [17] was 2.61 µM (active).
Take `CN1CCCN(c2cc(-c3ccc4ccccc4c3)nc3ccnn23)CC1`: the AC50 in experiment [10] was 8.49 µM (active); in experiment [18], 1.57 µM (active).
For the molecule `C[C@@H]1CN([C@H](C)CO)C(=O)Cc2cc(NC(=O)Nc3ccc4c(c3)OCO4)ccc2O[C@@H]1CN(C)Cc1ccc(C(F)(F)F)cc1`, the AC50 in [17] is 3.86 µM (active).
Regarding `Cc1ccc(S(=O)(=O)N(C)C[C@H]2Oc3ccc(NS(=O)(=O)c4ccccc4)cc3CC(=O)N([C@H](C)CO)C[C@H]2C)cc1`, the AC50 in [17] was 2.56 µM (active).
Still for that read-out and setting: the same measure for `C[C@H]1CN([C@@H](C)CO)C(=O)Cc2cc(NC(=O)Nc3ccc(C(F)(F)F)cc3)ccc2O[C@H]1CN(C)Cc1ccncc1`: 5.53 µM (active).
Consider `C[C@@H]1CNC(=O)c2c(C(=O)N(C)Cc3ccccc3)ncn21`, for which the concentration at half-maximal activity (AC50) in [5] is 3.39 µM (active); in experiment [6], 1.86 µM (active); in experiment [9], 4.8 µM (active); in experiment [7], 3.68 µM (active).
Consider `O=C(O)c1ccc(N/N=C/c2ccc(-c3ccccc3)cc2)cc1`, for which the AC50 is 3.09 µM (active) in [11] and 10.9 µM (active) in experiment [19].
